Reference: paper PMC9944328 (Nature Communications, 2023)

Test system: SSTR2 mutants
Assay: NanoBiT β-arrestin 1 recruitment assay, HEK293 (SSTR2 mutants);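 as to Best-fit Bottom: percent of maximal wild-type SSTR2 response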;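 as to Best-fit Span: percent of maximal wild-type SSTR2 response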;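 as to Best-fit Top: percent of maximal wild-type SSTR2 response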;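 as to Bottom (best-fit): percent of maximal wild-type response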;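 as to Span (best-fit value): percent of maximal wild-type response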;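 as to Span (best-fit): percent of maximal wild-type response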;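 as to Top (best-fit value): percent of maximal wild-type response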;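 as to Top (best-fit): percent of maximal wild-type response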
Type: cell-based, human
Conditions: for Bottom (β-arrestin1 recruitment) / LogEC50 (β-arrestin1 recruitment) / Span (β-arrestin1 recruitment) / Top (β-arrestin1 recruitment): best-fit
Experimental: The NanoBiT β-arrestin 1 recruitment assays were carried out according to the method described previously. […] Human full-length SSTR wild-type and mutant vectors were C-terminally fused with a 15-amino acid flexible linker and the small fragment (SmBiT). HEK293 cells were seeded into six-well microplates at a density of 1.0 × 10^6 cells/well and cultured for 24 h at 37 °C with 5% CO2. After that, cells were co-transfected with pcDNA3.1+ vectors encoding SSTR wild-type or mutants and human β-arrestin 1. After transfecting for 24 h, the transfected cells were suspended and seeded into white 96-well plates, and then cultured at 37 °C overnight. After that the medium in each well was exchanged for 90 μl of 0.01% bovine serum albumin containing 20 μl of 50 μM coelenterazine h (Carbosynth) diluted in the HBSS assay buffer and incubated for 40 min at room temperature. Then, ligands diluted in the assay buffer was added to each well and the luminescence intensity was measured using the Synergy H1 microplate reader and detected at room temperature in a time period. All data presented are means of at least three independent experiments.

SMILES: N#Cc1cccc(-c2ccc3ncc(-c4cc(F)cc(F)c4)c(N4CCC(N)CC4)c3c2)c1O [paltusotine]
- Bottom (best-fit) (F127A-1): -1.415
- LogEC50 (best-fit) (F127A-1): -6.677
- Span (best-fit) (F127A-1): 63.7
- Top (best-fit) (F127A-1): 62.28
- Bottom (best-fit) (F127A-2): -1.034
- LogEC50 (best-fit) (F127A-2): -6.706
- Span (best-fit) (F127A-2): 59.48
- Top (best-fit) (F127A-2): 58.45
- Bottom (best-fit) (F127A-3): -1.184
- LogEC50 (best-fit) (F127A-3): -6.817
- Span (best-fit) (F127A-3): 69.08
- Top (best-fit) (F127A-3): 67.89
- β-arrestin recruitment of mutant (F294(7.35)A): slightly influenced the β-arrestin pathway
- β-arrestin recruitment of mutants (I284ECL3A, K291(7.32)A and N276(6.55)A): slightly enhanced recruitment of β-arrestin
- Best-fit Bottom (SSTR2 I284A, run 1): -1.437
- Best-fit LogEC50 (SSTR2 I284A, run 1): -6.742
- Best-fit Span (SSTR2 I284A, run 1): 206.6
- Best-fit Top (SSTR2 I284A, run 1): 205.2
- Best-fit Bottom (SSTR2 I284A, run 2): -1.082
- Best-fit LogEC50 (SSTR2 I284A, run 2): -6.742
- Best-fit Span (SSTR2 I284A, run 2): 155.6
- Best-fit Top (SSTR2 I284A, run 2): 154.5
- Best-fit Bottom (SSTR2 I284A, run 3): -1.233
- Best-fit LogEC50 (SSTR2 I284A, run 3): -6.745
- Best-fit Span (SSTR2 I284A, run 3): 219.6
- Best-fit Top (SSTR2 I284A, run 3): 218.3
- Bottom (best-fit value) (SSTR2 W269A, run W269A-1): -0.1166
- LogEC50 (best-fit value) (SSTR2 W269A, run W269A-1): -6.523
- Span (best-fit value) (SSTR2 W269A, run W269A-1): 23.55
- Top (best-fit value) (SSTR2 W269A, run W269A-1): 23.43
- Bottom (best-fit value) (SSTR2 W269A, run W269A-2): -0.1813
- LogEC50 (best-fit value) (SSTR2 W269A, run W269A-2): -6.214
- Span (best-fit value) (SSTR2 W269A, run W269A-2): 28.45
- Top (best-fit value) (SSTR2 W269A, run W269A-2): 28.27
- Bottom (best-fit value) (SSTR2 W269A, run W269A-3): 0.3375
- LogEC50 (best-fit value) (SSTR2 W269A, run W269A-3): -6.325
- Span (best-fit value) (SSTR2 W269A, run W269A-3): 20.32
- Top (best-fit value) (SSTR2 W269A, run W269A-3): 20.66
- Best-fit Bottom (SSTR2 Y50A, run 1): -1.913
- Best-fit LogEC50 (SSTR2 Y50A, run 1): -7.128
- Best-fit Span (SSTR2 Y50A, run 1): 70.62
- Best-fit Top (SSTR2 Y50A, run 1): 68.71
- Best-fit Bottom (SSTR2 Y50A, run 2): -2.472
- Best-fit LogEC50 (SSTR2 Y50A, run 2): -7.187
- Best-fit Span (SSTR2 Y50A, run 2): 103.4
- Best-fit Top (SSTR2 Y50A, run 2): 100.9
- Best-fit Bottom (SSTR2 Y50A, run 3): -2.529
- Best-fit LogEC50 (SSTR2 Y50A, run 3): -7.176
- Best-fit Span (SSTR2 Y50A, run 3): 105.2
- Best-fit Top (SSTR2 Y50A, run 3): 102.6
- Bottom (best-fit value) (SSTR2 Y205A, run Y205A-1): -3.142
- LogEC50 (best-fit value) (SSTR2 Y205A, run Y205A-1): -6.819
- Span (best-fit value) (SSTR2 Y205A, run Y205A-1): 125.5
- Top (best-fit value) (SSTR2 Y205A, run Y205A-1): 122.3
- Bottom (best-fit value) (SSTR2 Y205A, run Y205A-2): -4.259
- LogEC50 (best-fit value) (SSTR2 Y205A, run Y205A-2): -6.824
- Span (best-fit value) (SSTR2 Y205A, run Y205A-2): 138.9
- Top (best-fit value) (SSTR2 Y205A, run Y205A-2): 134.6
- Bottom (best-fit value) (SSTR2 Y205A, run Y205A-3): -4.015
- LogEC50 (best-fit value) (SSTR2 Y205A, run Y205A-3): -6.671
- Span (best-fit value) (SSTR2 Y205A, run Y205A-3): 203.2
- Top (best-fit value) (SSTR2 Y205A, run Y205A-3): 199.2
- β-arrestin signal of mutant (V103(2.64)A): markedly reduced the paltusotine-induced β-arrestin signal
- Bottom (β-arrestin1 recruitment) (D295A-1): 0.727
- LogEC50 (β-arrestin1 recruitment) (D295A-1): -5.635
- Span (β-arrestin1 recruitment) (D295A-1): 100
- Top (β-arrestin1 recruitment) (D295A-1): 100.7
- Bottom (β-arrestin1 recruitment) (D295A-2): 1.431
- LogEC50 (β-arrestin1 recruitment) (D295A-2): -5.595
- Span (β-arrestin1 recruitment) (D295A-2): 100.8
- Top (β-arrestin1 recruitment) (D295A-2): 102.3
- Bottom (β-arrestin1 recruitment) (D295A-3): 0.3814
- LogEC50 (β-arrestin1 recruitment) (D295A-3): -5.706
- Span (β-arrestin1 recruitment) (D295A-3): 93.14
- Top (β-arrestin1 recruitment) (D295A-3): 93.53
- Bottom (β-arrestin1 recruitment) (F294A-1): -2.632
- LogEC50 (β-arrestin1 recruitment) (F294A-1): -5.979
- Span (β-arrestin1 recruitment) (F294A-1): 125.8
- Top (β-arrestin1 recruitment) (F294A-1): 123.2
- Bottom (β-arrestin1 recruitment) (F294A-2): -1.982
- LogEC50 (β-arrestin1 recruitment) (F294A-2): -5.979
- Span (β-arrestin1 recruitment) (F294A-2): 94.75
- Top (β-arrestin1 recruitment) (F294A-2): 92.77
- Bottom (β-arrestin1 recruitment) (F294A-3): -2.454
- LogEC50 (β-arrestin1 recruitment) (F294A-3): -6.059
- Span (β-arrestin1 recruitment) (F294A-3): 130.8
- Top (β-arrestin1 recruitment) (F294A-3): 128.3
- Bottom (β-arrestin1 recruitment) (K291A-1): -2.723
- LogEC50 (β-arrestin1 recruitment) (K291A-1): -7.098
- Span (β-arrestin1 recruitment) (K291A-1): 158
- Top (β-arrestin1 recruitment) (K291A-1): 155.2
- Bottom (β-arrestin1 recruitment) (K291A-2): -3.352
